Data taken from US7291601B1, “Arginine-rich anti-vascular endothelial growth factor peptides that inhibit growth and metastasis of human tumor cells by blocking angiogenesis” (Korea Greencross Corp., priority 1999, dated 2007).

Columns and labels:
HUVEC = assay: Toxicity of peptides to HUVEC in the absence of VEGF (thymidine incorporation); type: cell-based, human; details: 100 μM peptide
Procedure: In a gelatin-coated 48-well plate (Nunc) HUVEC were cultured at a density of 10^4 cells/well at 37° C. for one day, followed by washing the cells three times with serum-free medium 199. After being added with culture media containing VEGF (10 ng/ml, R&D systems) and various concentrations of the screened peptides, the cells were cultured at 37° C. After 24 hours of culturing, the cells were added with [methyl-^3H] thymidine (0.5 μCi/well) and cultured for an additional one day. Before quantification of the radioactivity used for the DNA synthesis with the aid of a liquid scintillation counter, the cells were washed with PBS containing 0.1% albumin, treated with 0.4 N NaOH at room temperature for 20 min for cell lysis, and neutralized with 2 N HCl. In order to determine the toxicity of the peptides, HUVEC were examined as in above using excess peptide (100 μM) in the absence of VEGF.
With reference to FIG. 10b, the radioactivity of the thymidine inserted into the genome of HUVEC is measured in the absence of no peptides and in the presence of 100 μM of each of the three peptides.

[1] = test system: human fibro-sarcoma cells; assay: Viability of human fibro-sarcoma cells (tetrazolium dye); type: cell-based; details: 3 days incubation, various concentrations
Procedure: The following experiment was carried out to determine whether peptides antagonistic to VEGF have direct influence on the growth of human fibro-sarcoma cells. After being cultured for one day in a 96-well plate (Nunc), the cancer cells were added with DMEM containing various concentrations of the screened peptides and incubated. To the cells remaining alive after 3 days of incubation, 20 μl of tetrazolium dye (Cell Titer 96 Non-Radioactive Proliferation assay kit, Promega) was added, followed by incubation at 37° C. for 4 hours. The formazan produced by the viable cells was dissolved in 0.2 ml of dimethyl sulfoxide (DMSO) quantified by the absorbance at 570 nm. The absorbance attributed to formazan is proportional to living cells.

VEGF = target: T1, VEGF (Homo sapiens, UniProt P15692); assay: 125I-labeled VEGF association with peptides fixed on ELISA plate, competition; type: binding; details: determined from IC50: KD=IC50−[non-labeled Competitor]; fixed peptide 100 ng/well; read-out: dissociation constant (KD) between VEGF and peptide
T1 sequence (P15692 27-191 isoform P15692-4): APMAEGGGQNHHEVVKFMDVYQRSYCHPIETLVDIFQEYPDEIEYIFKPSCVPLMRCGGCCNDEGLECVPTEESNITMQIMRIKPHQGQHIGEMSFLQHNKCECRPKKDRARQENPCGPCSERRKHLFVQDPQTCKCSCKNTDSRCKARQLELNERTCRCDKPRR
Procedure: To verify the postulated mechanism in which the screened peptides might be associated directly with VEGF so as to inhibit VEGF from binding to its receptors present on the surface of vascular endothelial cells, the following experiments were conducted. Each of the hexa-peptides was fixed on a 96-well ELISA plate at a concentration of 100 ng/well in such a manner that a 20% acetic acid solution containing each peptide was dried in air. The plate was treated three times with a phosphate buffered saline containing 0.1% albumin for 3 min each time. A solution of ^125I-labeled VEGF in the same phosphate buffered saline was added to the plate at a concentration of 0.2 ng/well and incubated at 37° C. for 1 hour to associate the labeled VEGF with the peptides. To remove the […] remaining unassociated, the plate washed four times with the same phosphate buffered saline for 3 min per each time, followed by measuring radioactivity with the aid of a γ-counter. As for the non-specific binding, it was determined by incubation in the presence of either a mixture of the labeled VEGF and non-labeled VEGF or a mixture of the fixed peptide and unfixed peptide in a molar ratio of 1:100. This was set as a negative control.
With reference to FIG. 7, radioactivity measured from ^125I-labeled VEGF associated with fixed peptides is plotted versus molar ratios of a competitor, such as non-labeled VEGF or free peptides, to its counterpart. […] The dissociation constant (KD) between VEGF and each peptide was determined using the IC50) value according to the following formula (De Blasi, A. et al., Trends Pharmacol. Sci., 10, 227 (1989)). KD=IC50−[non-labeled Competitor]

[2] = test system: HM7 (human colon carcinoma cell line); assay: Liver metastasis of HM7 cells transplanted into the spleen of nude mice; type: in vivo; details: control group PBS only
Description: In order to conduct an experiment concerning the metastasis of cancer cells to the liver, cancerous cells were transplanted into the spleen. In this regard, after being anesthetized with diethyl ether, 4-week-old male mice (athymic nude mice, BALB/c/nu/nu, Charles River, Japan) underwent flank incision. […] Four weeks after the injection, the liver was excised from each mouse and measured for weight and the size and number of metastatic nodules formed. Each test group was composed of 6-7 mice. In a student's t-test, a p value less than 0.05 was regarded as being statistically significant. In the test using tetrazolium dye (cell titer 96 Non-radioactive Proliferation Assay Kit, Promega), each peptide was evaluated to have no influence on the growth of the cancer cells (5×10^3 cells/well), so that the possibility that the toxicity of the peptide themselves might inhibit the growth and metastasis of cancer cells could be excluded.

Compound: H-RRKRRR-NH2 [compound 8, NH2-Arg-Arg-Lys-Arg-Arg-Arg-CONH2]
- direct influence on growth of HUVEC / cytotoxicity to endothelial cells (HUVEC): damage neither
- direct influence on growth / viability of human fibro-sarcoma cells ([1]; listed as SEQ ID NO: 1): no direct influence on human fibro sarcoma cells
- direct influence on growth / viability of human fibro-sarcoma cells ([1]; listed as Sequence 1): damage neither
- Kd (VEGF): 5 µM
- weight of the liver, % of the control group [2]: 33%
- number of metastatic nodules, % of the control group ([2]; liver): 16%

Compound: H-RKKRKR-NH2 [compound 1, NH2-Arg-Lys-Lys-Arg-Lys-Arg-CONH2]
- direct influence on growth of HUVEC / cytotoxicity to endothelial cells (HUVEC): damage neither
- direct influence on growth / viability of human fibro-sarcoma cells ([1]; listed as SEQ ID NO: 2): no direct influence on human fibro sarcoma cells
- direct influence on growth / viability of human fibro-sarcoma cells ([1]; listed as Sequence 2): damage neither
- Kd (VEGF): 2 µM

Compound: N=C(N)NCCC[C@H](NC(=O)[C@H](CCCNC(=N)N)NC(=O)[C@H](CCCNC(=N)N)NC(=O)[C@H](CCCNC(=N)N)NC(=O)[C@H](CCCNC(=N)N)NC(=O)[C@@H](N)CCCNC(=N)N)C(N)=O [compound 11, NH2-Arg-Arg-Arg-Arg-Arg-Arg-CONH2]
- direct influence on growth of HUVEC / cytotoxicity to endothelial cells (HUVEC): damage neither
- direct influence on growth / viability of human fibro-sarcoma cells ([1]; listed as SEQ ID NO: 3): no direct influence on human fibro sarcoma cells
- direct influence on growth / viability of human fibro-sarcoma cells ([1]; listed as Sequence 3): damage neither
- Kd (VEGF): 22 µM
